Values of other authors, collected in US12245592B2, “Encapsulated biocides and biorepellents” (Aerogel ApS, priority 2018, dated 2025).

Conditions: pure biocide

Zinc pyrithione
Biocide density: 1.78 gr/cm^3

On1ccccc1=S.On1ccccc1=S.[Cu] [Copper pyrithione, copper pyrithione]
Biocide density: 1.82 gr/cm^3

N#C[S][Cu][S]C#N [Copper thiocyanate]
Biocide density: 2.84 gr/cm^3

N#Cc1c(-c2ccc(Cl)cc2)[nH]c(C(F)(F)F)c1Br [Econea, 4-bromo-2-(4-chlorophenyl)-5-(trifluoromethyl)-1H-pyrrole-3-carbonitrile]
Biocide density: 1.71 gr/cm^3
